Data taken from ChEMBL document CHEMBL1121521, “Inhibitors of Bacillus subtilis DNA polymerase III. 6-Anilinouracils and 6-(alkylamino)uracils” (J Med Chem, 1980).
pKi: −log10 of the molar value.

Tests used:
[1] = biological target: T1, DNA polymerase III PolC-type (Bacillus subtilis (strain 168), UniProt P13267); experiment: Inhibition against Bacillus subtilis DNA polymerase III (wild type)
Target sequence in this assay (P13267 whole entry): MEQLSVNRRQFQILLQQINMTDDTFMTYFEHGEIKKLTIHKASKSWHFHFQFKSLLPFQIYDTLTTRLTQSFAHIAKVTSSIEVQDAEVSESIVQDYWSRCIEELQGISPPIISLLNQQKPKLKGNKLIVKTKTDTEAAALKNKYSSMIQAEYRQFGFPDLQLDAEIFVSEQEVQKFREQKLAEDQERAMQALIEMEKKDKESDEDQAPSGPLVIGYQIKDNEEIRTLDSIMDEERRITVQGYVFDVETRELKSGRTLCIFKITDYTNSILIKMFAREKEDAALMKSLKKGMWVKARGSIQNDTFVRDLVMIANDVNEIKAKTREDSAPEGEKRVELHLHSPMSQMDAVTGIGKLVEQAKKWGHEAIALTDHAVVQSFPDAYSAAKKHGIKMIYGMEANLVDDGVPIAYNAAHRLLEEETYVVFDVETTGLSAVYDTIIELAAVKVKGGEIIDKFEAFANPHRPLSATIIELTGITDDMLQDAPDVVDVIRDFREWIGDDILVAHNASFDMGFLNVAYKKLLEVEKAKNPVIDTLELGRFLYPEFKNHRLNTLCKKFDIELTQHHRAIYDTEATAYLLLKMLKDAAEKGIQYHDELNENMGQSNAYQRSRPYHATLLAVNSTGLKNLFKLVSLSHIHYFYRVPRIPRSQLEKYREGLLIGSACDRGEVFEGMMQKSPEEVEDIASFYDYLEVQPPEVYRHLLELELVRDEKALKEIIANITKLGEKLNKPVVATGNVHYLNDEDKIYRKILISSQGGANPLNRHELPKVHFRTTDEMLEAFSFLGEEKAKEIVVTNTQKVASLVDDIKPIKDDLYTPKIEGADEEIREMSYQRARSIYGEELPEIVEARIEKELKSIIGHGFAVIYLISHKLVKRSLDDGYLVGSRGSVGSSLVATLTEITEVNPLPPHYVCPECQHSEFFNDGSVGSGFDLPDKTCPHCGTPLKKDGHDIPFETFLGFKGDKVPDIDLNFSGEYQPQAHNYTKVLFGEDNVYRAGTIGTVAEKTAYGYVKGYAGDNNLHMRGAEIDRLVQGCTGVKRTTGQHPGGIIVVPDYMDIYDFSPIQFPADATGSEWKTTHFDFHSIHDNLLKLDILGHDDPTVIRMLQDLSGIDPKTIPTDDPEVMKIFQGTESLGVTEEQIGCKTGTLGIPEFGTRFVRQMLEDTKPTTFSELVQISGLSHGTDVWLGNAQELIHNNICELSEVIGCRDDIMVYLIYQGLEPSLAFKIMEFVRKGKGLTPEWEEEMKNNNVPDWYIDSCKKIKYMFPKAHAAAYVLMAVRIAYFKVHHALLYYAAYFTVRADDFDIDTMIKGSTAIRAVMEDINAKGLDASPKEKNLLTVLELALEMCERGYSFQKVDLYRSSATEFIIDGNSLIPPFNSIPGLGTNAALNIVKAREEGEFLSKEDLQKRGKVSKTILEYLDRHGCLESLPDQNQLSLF

[2] = biological target: DNA polymerase III PolC-type (Bacillus subtilis (strain 168)) (UniProt P13267); experiment: Degree of resistance is the ratio between inhibition of Bacillus subtilis DNA Polymerase III azp-12 and WT.
Chain of DNA polymerase III PolC-type (Bacillus subtilis (strain 168)) (P13267 whole entry): as above

[3] = biological target: T1, DNA polymerase III PolC-type; experiment: In vitro inhibition of Bacillus subtilis DNA Polymerase III/azp-12(mutant).
Target sequence in this assay (P13267 whole entry, looked up): as the sequence (P13267 whole entry) above

[4] = biological target: T1, DNA polymerase III PolC-type; experiment: Inhibition of Bacillus subtilis DNA polymerase III (wild type)
Target sequence in this assay (P13267 whole entry): as above

[5] = biological target: T1, DNA polymerase III PolC-type; experiment: Inhibition of Bacillus subtilis DNA polymerase III (wild type); NA = inactive (<10% inhibition at 1000 uM)
Target sequence in this assay (P13267 whole entry): as above

[6] = biological target: T1, DNA polymerase III PolC-type; experiment: Inhibition of Bacillus subtilis […](wild type); NA = inactive (<10% inhibition at 1000 uM)
Target sequence in this assay (P13267 whole entry): as above

[7] = biological target: T1, DNA polymerase III PolC-type; experiment: Inhibition against Bacillus subtilis DNA Polymerase III/azp-12(mutant);NA = inactive (<10% inhibition at 1000 uM)
Target sequence in this assay (P13267 whole entry, looked up): as the sequence (P13267 whole entry) above

[8] = biological target: T1, DNA polymerase III PolC-type; experiment: Inhibition against Bacillus subtilis DNA Polymerase III/azp-12(mutant)
Target sequence in this assay (P13267 whole entry, looked up): as the sequence (P13267 whole entry) above

Row | Structure (SMILES) | pKi [1] | Degree of resistance [2] | also measured
1 | O=c1cc(Nc2ccc3ccccc3c2)[nH]c(=O)[nH]1 | 5.17 |  | 
2 | OCc1cccc(Nc2cc(O)nc(O)n2)c1 |  | 12.4 | 
3 | CC(C)c1ccc(Nc2cc(O)nc(O)n2)cc1 |  | 0.065 | 
4 | Cc1ccc(Nc2cc(=O)[nH]c(=O)[nH]2)cc1CO | 4.11 |  | 
5 | O=c1cc(Nc2cccc(CO)c2)[nH]c(=O)[nH]1 | 3.38 |  | pKi [3]: 2.29
6 | O=c1cc(Nc2ccc(C(F)(F)F)cc2)[nH]c(=O)[nH]1 | 4.00 |  | 
7 | Oc1cc(Nc2cccc(Br)c2)nc(O)n1 | 4.99 | 2.1 | pKi [3]: 4.66
8 | CC(=O)Nc1ccc(Nc2cc(=O)[nH]c(=O)[nH]2)cc1C | 3.33 |  | 
9 | Cc1ccc(Nc2cc(O)nc(O)n2)cc1 |  | 3.9 | 
10 | CCCCCNc1cc(=O)[nH]c(=O)[nH]1 |  |  | pKi [4]: 3.47
11 | Cc1cccc(Nc2cc(=O)[nH]c(=O)[nH]2)c1 | 4.37 |  | pKi [3]: 3.75
12 | CCCNc1cc(O)nc(O)n1 |  |  | Ki [5]: Not Active
13 | O=c1cc(Nc2cccc(CCl)c2)[nH]c(=O)[nH]1 | 5.12 |  | 
14 | CCc1ccccc1Nc1cc(O)nc(O)n1 |  |  | Ki [6]: Not Active
15 | CCCCNc1cc(O)nc(O)n1 |  |  | pKi [4]: 2.27
16 | Oc1cccc(Nc2cc(O)nc(O)n2)c1 | 2.58 |  | Ki [7]: Not Active
17 | O=c1cc(Nc2cccc3ccccc23)[nH]c(=O)[nH]1 | 4.08 |  | 
18 | CCCCCCNc1cc(=O)[nH]c(=O)[nH]1 | 3.43 |  | 
19 | Cc1ccc(Nc2cc(O)nc(O)n2)c(C)c1 | 2.70 |  | 
20 | Cc1ccc(Nc2cc(O)nc(O)n2)cc1CCl | 6.59 |  | 
21 | CCCc1ccc(Nc2cc(O)nc(O)n2)cc1 |  | 0.12 | 
22 | CCc1ccc(Nc2cc(O)nc(O)n2)cc1 |  | 0.3 | 
23 | CCCc1ccc(Nc2cc(=O)[nH]c(=O)[nH]2)cc1 | 3.34 |  | pKi [3]: 4.27
24 | Cc1cc(Nc2cc(O)nc(O)n2)ccc1Br |  | 0.85 | 
25 | Cc1ccc(C)c(Nc2cc(O)nc(O)n2)c1 | 2.87 |  | 
26 | Oc1cc(Nc2ccc(Cl)c(Cl)c2)nc(O)n1 | 6.03 |  | 
27 | CCCCCCCCCCNc1cc(O)nc(O)n1 |  |  | Ki [6]: Not Active

Row | Structure (SMILES) | pKi [1] | Degree of resistance [2] | also measured
28 | CC(=O)Nc1cc(Nc2cc(O)nc(O)n2)ccc1C | 3.34 |  | 
29 | CCNc1cc(O)nc(O)n1 |  |  | Ki [6]: Not Active
30 | O=c1cc(Nc2ccc(Cl)cc2)[nH]c(=O)[nH]1 |  | 0.56 | 
31 | Oc1cc(Nc2ccc(Br)cc2)nc(O)n1 |  | 0.13 | 
32 | Cc1ccccc1Nc1cc(O)nc(O)n1 |  |  | Ki [5]: Not Active
33 | Oc1cc(Nc2cccc(I)c2)nc(O)n1 |  | 4.3 | 
34 | Oc1cc(Nc2ccc3c(c2)CCC3)nc(O)n1 | 6.38 |  | 
35 | Cc1cccc(Nc2cc(O)nc(O)n2)c1 |  | 4.2 | 
36 | COc1ccc(Nc2cc(O)nc(O)n2)cc1 | 3.92 | 1 | pKi [3]: 3.92
37 | Oc1ccc(Nc2cc(O)nc(O)n2)cc1 |  | 2.2 | 
38 | Oc1cc(Nc2cccc(Cl)c2)nc(O)n1 | 4.60 | 1.7 | pKi [3]: 4.38
39 | Cc1cccc(Nc2cc(=O)[nH]c(=O)[nH]2)c1C | 3.65 |  | 
40 | C=CCNc1cc(O)nc(O)n1 |  |  | pKi [4]: 1.65
41 | Cc1cc(C)c(Nc2cc(O)nc(O)n2)c(C)c1 |  |  | Ki [6]: Not Active
42 | OCc1ccc(Nc2cc(O)nc(O)n2)cc1 |  | 0.6 | 
43 | Cc1ccc(Nc2cc(=O)[nH]c(=O)[nH]2)cc1N | 3.91 |  | pKi [8]: 3.53
44 | Cc1ccc(Nc2cc(O)nc(O)n2)cc1C | 6.04 | 3.9 | pKi [3]: 5.46
45 | Cc1ccc(Nc2cc(O)nc(O)n2)cc1Cl | 6.20 |  | 
46 | CC(C)CCNc1cc(=O)[nH]c(=O)[nH]1 | 2.62 |  | 
47 | Nc1ccc(Nc2cc(=O)[nH]c(=O)[nH]2)cc1 | 3.19 |  | pKi [8]: 2.41
48 | Cc1cc(Nc2cc(=O)[nH]c(=O)[nH]2)ccc1N | 4.72 |  | pKi [8]: 3.80
49 | O=c1cc(NCCCCCO)[nH]c(=O)[nH]1 | 1.87 |  | 
50 | CCCCc1ccc(Nc2cc(O)nc(O)n2)cc1 |  | 0.4 | 
51 | Cc1cc(C)cc(Nc2cc(=O)[nH]c(=O)[nH]2)c1 | 3.91 |  | 
52 | CCc1cccc(Nc2cc(O)nc(O)n2)c1 |  | 6.4 | 
53 | Cc1ccc(Nc2cc(=O)[nH]c(=O)[nH]2)cc1I | 6.42 |  | 
